Key:
[1] = system: normal NK cells expanded with K562-aAPC; assay: percent inhibition of viability; higher = more inhibition; conditions: 72 h, IL-2 2.5 ng/mL
Protocol: (§1)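 Drug sensitivity and resistance testing on K562-aAPC-expanded normal NK cells: 5 concentrations (10-fold steps over a 10,000-fold range), 72 h at 37 °C, viability by CellTiter-Glo normalised to DMSO and benzethonium chloride controls; DSS from the fitted curve.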

[2] = system: normal primary NK cells, pool 1 (3 donors) (IL-2 2.5 ng/mL); assay: drug sensitivity score (DSS) (DSS units); higher = more sensitive; extreme values may be limits of the assay; conditions: 72 h
NK-92 (IL-2 2.5 ng/mL) [3] = assay: as above; conditions: 72 h
IMC-1 (IL-2 20 ng/mL) [4] = assay: as above; conditions: 72 h
DERL-7 (IL-2 2.5 ng/mL) [5] = assay: as above; conditions: 72 h
SNK-6 (IL-2 2.5 ng/mL) [6] = assay: as above; conditions: 72 h
[7] = system: normal primary NK cells, pool 3 (3 donors) (IL-2 2.5 ng/mL); assay: as above; conditions: 72 h
KAI3 (IL-2 2.5 ng/mL) [8] = assay: as above; conditions: 72 h
NK-YS (IL-2 2.5 ng/mL) [9] = assay: as above; conditions: 72 h
[10] = system: normal primary NK cells, pool 1 (3 donors), resting (IL-2 0 ng/mL); assay: as above; conditions: 72 h
NKL (IL-2 2.5 ng/mL) [11] = assay: as above; conditions: 72 h
YT (IL-2 2.5 ng/mL) [12] = assay: as above; conditions: 72 h
KHYG-1 (IL-2 2.5 ng/mL) [13] = assay: as above; conditions: 72 h
[14] = system: normal primary NK cells, pool 2 (3 donors) (IL-2 2.5 ng/mL); assay: as above; conditions: 72 h
[15] = system: normal primary NK cells, pool 1 (3 donors) (IL-2 2.5 ng/mL); assay: percent inhibition of viability; higher = more inhibition; conditions: 72 h
NK-92 (IL-2 2.5 ng/mL) [16] = assay: as above; conditions: 72 h
IMC-1 (IL-2 20 ng/mL) [17] = assay: as above; conditions: 72 h
DERL-7 (IL-2 2.5 ng/mL) [18] = assay: as above; conditions: 72 h
SNK-6 (IL-2 2.5 ng/mL) [19] = assay: as above; conditions: 72 h
[20] = system: normal primary NK cells, pool 3 (3 donors) (IL-2 2.5 ng/mL); assay: as above; conditions: 72 h
KAI3 (IL-2 2.5 ng/mL) [21] = assay: as above; conditions: 72 h
NK-YS (IL-2 2.5 ng/mL) [22] = assay: as above; conditions: 72 h
[23] = system: normal primary NK cells, pool 1 (3 donors), resting (IL-2 0 ng/mL); assay: as above; conditions: 72 h
NKL (IL-2 2.5 ng/mL) [24] = assay: as above; conditions: 72 h
YT (IL-2 2.5 ng/mL) [25] = assay: as above; conditions: 72 h
KHYG-1 (IL-2 2.5 ng/mL) [26] = assay: as above; conditions: 72 h
[27] = system: normal primary NK cells, pool 2 (3 donors) (IL-2 2.5 ng/mL); assay: as above; conditions: 72 h
[28] = system: normal NK cells expanded with K562-aAPC; assay: drug sensitivity score (DSS) (DSS units); higher = more sensitive; extreme values may be limits of the assay; conditions: 72 h; IL-2 2.5 ng/mL
Protocol: as §1

Nc1ncnc2c1nc(Cl)n2[C@@H]1O[C@H](CO)[C@@H](O)[C@H]1O [8-chloro-adenosine] (max concentration tested 50000 nM)
percent inhibition of viability [%]
Conditions | 5 nM | 50 nM | 500 nM | 5000 nM | 50000 nM
DERL-7 (IL-2 2.5 ng/mL) [18] | -0.76 | -2.87 | 38.2 | 96.9 | 101
IMC-1 (IL-2 20 ng/mL) [17] | -4.61 | -4.66 | -2.73 | -11.7 | 66.7
KAI3 (IL-2 2.5 ng/mL) [21] | -13.1 | -12.4 | 38.3 | 86.7 | 92.9
KHYG-1 (IL-2 2.5 ng/mL) [26] | -6.84 | -4.5 | 1.43 | 75.4 | 94
NK-92 (IL-2 2.5 ng/mL) [16] | -20.2 | -17.7 | 8.7 | 44.5 | 64
NK-YS (IL-2 2.5 ng/mL) [22] | -8.76 | -5.07 | 22.4 | 73.6 | 92.2
NKL (IL-2 2.5 ng/mL) [24] | -21.8 | -24.6 | -10.7 | 40.7 | 75.6
SNK-6 (IL-2 2.5 ng/mL) [19] | 21.5 | 20.6 | 46.5 | 92.8 | 96.9
YT (IL-2 2.5 ng/mL) [25] | -2.82 | -1.05 | 1.56 | 66.9 | 72.2
[1] | -0.51 | -6.13 | 2.57 | 35.4 | 73
[15] | -2.27 | -6.47 | -3.95 | 30.1 | 77.2
[20] | -18.1 | -3.17 | -4.4 | 17.3 | 57.7
[23] | -17.2 | -29.2 | -19.8 | 36.1 | 78.2
[27] | -8.69 | 0.94 | 1.41 | 28 | 71.1

Conditions | drug sensitivity score
DERL-7 (IL-2 2.5 ng/mL) [5] | 22.6
IMC-1 (IL-2 20 ng/mL) [4] | 2.97
KAI3 (IL-2 2.5 ng/mL) [8] | 21.9
KHYG-1 (IL-2 2.5 ng/mL) [13] | 14
NK-92 (IL-2 2.5 ng/mL) [3] | 9.34
NK-YS (IL-2 2.5 ng/mL) [9] | 16.3
NKL (IL-2 2.5 ng/mL) [11] | 9.19
SNK-6 (IL-2 2.5 ng/mL) [6] | 23.8
YT (IL-2 2.5 ng/mL) [12] | 12.5
[2] | 8.37
[7] | 5.7
[10] | 8.97
[14] | 7.63
[28] | 8.27
